Data: patent US10799456B2, “Multiple drug lipid nanoparticle composition and related methods for extended drug levels in blood and lymph tissue” (priority 2015, dated 2020)

Tests used:
[1] = DPH fluorescence anisotropy, lipid phase transition temperature; format: physicochemical
Protocol: To evaluate the change in membrane fluidity due to drug insertion into the lipid membrane, 0.1% 1,6-diphenyl-1,3,5-hexatriene (DPH) was used as an intra-membrane probe.^18,20 Briefly, to incorporate DPH into the lipid membrane, 2 μL of 2 mM DPH in tetrahydrofuran was added to the lipid nanoparticle suspension with or without drug. The final preparation was incubated at 60° C. (above the 55° C. DSPC phase transition temperature) for 30 min, then slowly cooled to room temperature over 15 min. […] A water-jacketed cuvette holder connected to a circulating water bath (PolyScience, model 1162, Niles, Ill.) was used to control the temperature within the cuvette, which was measured by a digital thermometer. The cuvette was allowed to equilibrate for 10 min before taking each temperature reading. The fluorescence intensities, both parallel and perpendicular to the emission light, were measured continuously with a F-4500 fluorescence spectrometer (Hitachi, Minato-ku, Tokyo, Japan) set at kex/em=360/430 nm; both excitation and emission slits were 5 nm. Fluorescence anisotropy response, r, was calculated by the equation: […]
The fluorescence anisotropy response versus temperature curve was generated by non-linear regression using SigmaPlot software (11.0 version, Systat Software, Inc., San Jose, Calif.). […]

[2] = % Drug association to particles by assembly method; format: physicochemical
Excerpt: Select one or two drugs hydrophilic and water soluble (Class 2) drugs listed in Table 19 (for example, tenofovir and/or emtricitabine and/or lamivudine). • 3. Select the excipient combination (for example, 9 parts DSPC and 1 part PEG-DSPE). • 4. Prepare a single-phase miscible solvent that enables full solubilization of the chosen water-insoluble Class 1 drugs and water soluble Class 2 drugs plus the excipients from step 3. Examples include CHCl3:Methanol:Water (65:35:4); CHCl3:Ethanol:Water (65:35:4); CHCl3:Propanol:Water (65:35:4); and CHCl3:Hexanol:Water (65:35:4). • 5. The components in Steps 1, 2 and 3 are solubilized with the miscible solvent in step 4. • 6. The drugs (steps 1 and 2) as well as excipients (step 3) and the miscible solvent (step 4) are dried under reduced pressure with assistance of a combination of heat, reduced pressure and/or aerosolization to provide for uniformity and efficiency of drying. • 7. The dehydrated composition is heated above gel-to-liquid phase transition temperature of the excipient mixture (e.g., 50° C.). • 8. A buffered saline solution is prepared and the temperature is equilibrated to the same temperature as dehydrated composition. • 9. The buffered saline solution and dehydrated composition are gradually combined and maintained at the defined (e.g., 50° C.) for 3 hr. • 10. The resulting hydrated multi-drug lipid nanoparticles are size-reduced by sheering or forcing through small orifice or pressurized filter apparatus while maintaining at the defined temperature (in liquid phase of lipidic excipients).

[3] = Tables 20 and 21; cited from earlier work
[4] = Octanol-buffer distribution coefficient (shake-flask); format: physicochemical; conditions: room temperature
Protocol: The octanol-buffer drug distribution coefficient at room temperature was determined by a small-scale, shake-flask method described by Dittert L W, et al. Phase Solubility Technique in Studying the Formation of Complex Salts of Triamterene. Journal of pharmaceutical sciences. […] Briefly, phosphate-buffered saline (PBS) at pH 3, 5, and 7.4 was used as the aqueous phase. […] The mixture was centrifuged at 14,000 rpm (18,078 g) (Beckman Coulter™ Microfuge® 18 centrifuge, Beckman Coulter Inc., Brea, Calif.) to separate octanol and the aqueous phase. The drug concentration in the two phases was determined with high-performance liquid chromatography tandem mass spectrometry (HPLC/MS/MS). The distribution coefficient was calculated as the ratio of the drug concentration in the octanol phase to the drug concentration in the aqueous phase. Triplicate samples were used at each pH.

[5] = Drug incorporation efficiency into lipid-drug nanoparticles (dialysis); format: physicochemical; conditions: for Incorporation efficiency (%): DSPC:DSPE-mPEG2000 8:2
Protocol: J Acquir Immune Defic Syndr. […] Journal of pharmaceutical sciences. […] The AAPS journal. […] Residual solvent was removed overnight by vacuum desiccation. The dried lipid-drug film was then rehydrated with 0.9% NaCl containing 20 mM sodium bicarbonate (pH 7.4). The lipid-drug samples were allowed to hydrate at 60° C. for 2 h. Then samples were sonicated (laboratory scale) or homogenized (preclinical scale) to achieve a homogenous suspension.
The incorporation efficiency was calculated as the ratio of the amount of incorporated drug over the total amount of drug loaded multiplied by 100%.

[6] = Particle size by photon correlation spectroscopy; format: physicochemical
Protocol: The mean particle size of lipid-drug nanoparticles and liposome control was determined by photon correlation spectroscopy (PCS) using a NICOMP™ 380ZLS instrument (NICOMP Particle Sizing Systems, Santa Barbara, Calif.). […] Samples were diluted with the same buffer to an identical final volume to analyze concentration effects. The light scattering data were analyzed based on intensity-weight NICOMP size distribution and expressed as a mean±SD.
Briefly, lipids and protease inhibitors were dissolved in chloroform:ethanol (3:1 v/v) and PMPA was added from a stock solution of 30 mg/ml in aqueous 150 mM NaHCO3. Solvent was removed by rotary evaporation and vacuum desiccation. The dry film was rehydrated to 200 mM lipid in 0.4% NaCl with 20 mM NaHCO3 buffer at 60° C. Particle size was reduced at 60° C. by bath sonication (laboratory scale) or high-pressure homogenization using an Emulsiflex-05 (Avestin, Ottawa, Canada) (clinical scale). LNPs were maintained at 60° C. to anneal for 30 min prior to cooling and stored at 4° C. Particle size was determined by photon correlation spectroscopy using a NICOMP 380 ZLS (Particle Sizing Systems, Santa Barbara, Calif.).

Substance: Darunavir [Darunavir (DRV)]
- reduction of TC ([1]; lipid-to-drug 8:1, vs control LNPs): 1.6 °C
- phase transition temperature (TC) ([1]; lipid-to-drug molar ratio 8:1): 53.3 °C
- % Drug Association to Particles, LNPs from mixture of dual solvent method [2]: 97%
- Hydrophobicity (Log P) [3]: 1.8
- Log D (measured) ([4]; pH 3, octanol/PBS): 2.98
- Log D (measured) ([4]; pH 5, octanol/PBS): 2.80
- Log D (measured) ([4]; pH 7.4, octanol/PBS): 2.84
- Incorporation efficiency (%) ([5]; lipid:drug 5:1 mol/mol): 88.1 ± 3.8%
- Incorporation efficiency (%) ([5]; lipid:drug 5:1 mol/mol, listed as DRV): 88.1%
- Incorporation efficiency (%) ([5]; lipid:drug 8:1 mol/mol): 94.4 ± 2.8%
- Incorporation efficiency (%) ([5]; lipid:drug 8:1 mol/mol, listed as DRV): 94.4%
- Incorporation efficiency (%) ([5]; lipid:drug 20:1 mol/mol): 96.6 ± 4.8%
- Incorporation efficiency (%) ([5]; lipid:drug 20:1 mol/mol, listed as DRV): 96.6%
- drug incorporation efficiency ([5]; prepared at 0.5 mM lipid): 58%
- drug incorporation efficiency ([5]; prepared at 5 mM lipid): 95%
- Particle size (nm) ([6]; lipid:drug 5:1 mol/mol): 33.6 ± 3.1 nm
- Particle size (nm) ([6]; lipid:drug 8:1 mol/mol): 35.6 ± 3.9 nm
- Particle size (nm) ([6]; lipid:drug 20:1 mol/mol): 35.6 ± 3.7 nm
